Laboratory results from patent US11524943B1 (Vivace Therapeutics, Inc., priority 2017, dated 2022).

Tested on: HEK293T cells stably transfected with 8×TBD luciferase reporter and pRLTK
Test: YAP Reporter Assay (8×TBD firefly luciferase reporter)
Type: cell-based
Settings: Homo sapiens, HEK-293T; HEK293T 8×TBD reporter cells, 24-hr incubation, top concentration 3 μM, 1:3 dilution, 10 points
Description: HEK293T cells stably transfected with 8×TBD luciferase reporter and pRLTK in 384-well plates were treated with the test compounds, starting from 3 μM (final concentration in assay plate), 1:3 dilution, and 10 points in quadruplicates. Post 24-hr incubation with compounds at 37° C. and 5% CO2, cells were lysed and 8×TBD-driven firefly luciferase and control TK-driven renilla luciferase activities were measured using Promega Dual-Luciferase Reporter Assay System.
Reagents: The reagents used for this study are: DMEM: Invitrogen #11960077, Dual-Glo Luciferase Assay System: Promega-E2980, Puromycin Dihydrochloride: Invitrogen-A1113803, 384-well plate: PerkinElmer-6007480, L-GLUTAMINE: Invitrogen-25030164, Hygromycin B: Invitrogen-10687010, and Penicillin-Streptomycin: Merk-TMS-AB2-C
Media: The media used for this assay were: Culture Medium: DMEM+1 ug/mL puromycin+200 ug/mL hygromycin (with 10% FBS+1 mM L-glutamine); and Assay Medium: DMEM (with 10% FBS+1 mM L-glutamine+1×P/S).
Cell Plating: The appropriate media was warmed at 37° C. by water bath: Culture Medium, Assay Medium, 1*D-PBS, 0.05% trypsin-EDTA. The cells were trypsinized after removing all media, then washed with 1* sterile D-PBS and then with 2 ml 0.05% trypsin-EDTA. The cells were then incubated at RT for one minute. Then 10 ml/75 cm2 flask Assay Medium was added to each flask. Using a 10 ml pipette, the cells were then gently resuspended in the media, until the clumps completely disappeared. The cells were then transferred into 50 ml centrifuge tubes and were centrifuged at 800 rpm for 5 mins. The medium was removed and the cells were resuspended with Assay Medium. An aliquot of cells was used to count the cell density (cells/ml). The cell suspension was then diluted with Assay Medium to a concentration of 6×10^4 cells/ml. 50 ul cells suspension was then plated to 384-well plate (PerkinElmer-6007480), 3×10^3 cells/well and the cells were incubated in an incubator at 37° C., 5% CO2.
Compound Treatment: In the afternoon (incubation of the plate with 3-4 hrs), the test compounds were added by Echo, starting from 3 uM (final concentration in the assay plate), 1:3 dilution, 10 points, quadruplicates. The plate was placed at 37° C., 5% CO2 incubator for 24 hrs.
Detection: The Dual-Glo Luciferase Reagent was prepared by transferring the contents of one bottle of Dual-Glo Luciferase Buffer to one bottle of Dual-Glo Luciferase Substrate to create the Dual-Glo Luciferase Reagent. Mixing was performed by inversion until the substrate was thoroughly dissolved. After mixing, the reagent was aliquoted into 15 ml tubes. In the afternoon (24 hrs post compound treatment), the DMEM+ medium in the 384 well plates were aspirated by Microplate Washer.
Measuring firefly luciferase activity: 20 ul Dual-Glo Luciferase Reagent was added to the 384-well plates. The plates were protected from light to prevent interference with the assay. The plates were shaken for 1 min followed centrifuging plates at 1000 rpm for 30 seconds. After waiting at least 10 minutes, the firefly luminescence was measured by Envision.
Measuring renilla luciferase activity: 20 ul Stop-Glo Reagent was added to the 384-well plates. The plates were shaken for 1 min and then centrifuged at 1000 rpm for 30 seconds. After waiting at least 10 minutes, the renilla luminescence was measured by Envision.
Compound IC50 and maximum inhibition on the firefly luciferase and renilla luciferase activities were reported separately.

How did the IC50 turn out when `COC(=O)c1ccc(Nc2ccc(C(F)(F)F)cc2)c(-c2nnn(C)n2)c1` [Compound 1, methyl 3-(2-methyl-2H-tetrazol-5-yl)-4-((4-(trifluoromethyl)phenyl)amino)benzoate] was run?
The IC50 was at most 100 nM.

`COC(=O)c1ccc(Nc2cccc(C(F)(F)F)c2)c(-c2nnn(C)n2)c1` [Compound 2, methyl 3-(2-methyl-2H-telrazol-5-yl)-4-((3-(trifluoromethyl)phenyl)amino)benzoate] was tested. Which IC50 did it give?
The IC50 was at most 100 nM.

Which IC50 does the source give for `Cn1nnc(-c2cc(C(=O)O)ccc2Nc2ccc(C(F)(F)F)cc2)n1` [Compound 3, 3-(2-methyl-2H-tetrazol-5-yl)-4-((4-(trifluoromethyl)phenyl)amino) benzoic acid] here?
The IC50 was at most 100 nM.

For `Cn1nnc(-c2cc(C(=O)O)ccc2Nc2cccc(C(F)(F)F)c2)n1` [Compound 4, 3-(2-methyl-2H-tetrazol-5-yl)-4-((3-(trifluoromethyl)phenyl)amino) benzoic acid], which IC50 is on record?
Its IC50 is at most 100 nM.

`CNC(=O)c1ccc(Nc2cccc(C(F)(F)F)c2)c(-c2nnn(C)n2)c1` [Compound 5, N-methyl-3-(2-methyl-2H-tetrazol-5-yl)-4-((3-(trifluoromethyl)phenyl)amino) benzamide] was tested. Which IC50 did it give?
Its IC50 is at most 100 nM.

How did the IC50 turn out when `Cn1nnc(-c2cc(C(N)=O)ccc2Nc2cccc(C(F)(F)F)c2)n1` [Compound 6, 3-(2-methyl-2H-tetrazol-5-yl)-4-((3-(trifluoromethyl)phenyl)amino) benzamide] was run?
Its IC50 is at most 100 nM.

How did the IC50 turn out when `Cn1nnc(-c2cc(C(N)=O)ccc2Nc2ccc(C(F)(F)F)cc2)n1` [Compound 7, 3-(2-methyl-2H-tetrazol-5-yl)-4-((4-(trifluoromethyl)phenyl)amino) benzamide] was run?
The IC50 was at most 100 nM.

Which IC50 does the source give for `CNC(=O)c1ccc(Nc2ccc(C(F)(F)F)cc2)c(-c2nnn(C)n2)c1` [Compound 8, N-methyl-3-(2-methyl-2H-tetrazol-5-yl)-4-((4-(trifluoromethyl)phenyl)amino) benzamide] here?
Its IC50 is at most 100 nM.

With `CCNC(=O)c1ccc(Nc2ccc(C(F)(F)F)cc2)c(-c2nnn(C)n2)c1` [Compound 10, N-ethyl-3-(2-methyl-2H-tetrazol-5-yl)-4-((4-(trifluoromethyl)phenyl)amino) benzamide] as the molecule, how does the IC50 read?
The IC50 was at most 100 nM.

How did the IC50 turn out when `CC(C)NC(=O)c1ccc(Nc2ccc(C(F)(F)F)cc2)c(-c2nnn(C)n2)c1` [Compound 11, N-isopropyl-3-(2-methyl-2H-tetrazol-5-yl)-4-((4-(trifluoromethyl)phenyl)amino) benzamide] was run?
The IC50 was at most 100 nM.

With `COC(=O)c1ccc(Nc2ccc(C(=O)NC(C)C)cc2)c(-c2nnn(C)n2)c1` [Compound 12, methyl 4-((4-(isopropylcarbamoyl)phenyl)amino)-3-(2-methyl-2H-tetrazol-5-yl)benzoate] as the molecule, how does the IC50 read?
Its IC50 is 1000 to 3000 nM.

Which IC50 does the source give for `CN(C)C(=O)c1ccc(Nc2ccc(C(F)(F)F)cc2)c(-c2nnn(C)n2)c1` [Compound 13, N,N-dimethyl-3-(2-methyl-2H-tetrazol-5-yl)-4-((4-(trifluoromethyl)phenyl)amino) benzamide] here?
The IC50 was 100 to 1000 nM.

Which IC50 does the source give for `Cn1nnc(-c2cc(C(=O)NS(C)(=O)=O)ccc2Nc2ccc(C(F)(F)F)cc2)n1` [Compound 15, 3-(2-methyl-2H-tetrazol-5-yl)-N-(methylsulfonyl)-4-((4-(trifluoromethyl)phenyl)amino) benzamide] here?
Its IC50 is at most 100 nM.

For `CCN(CC)C(=O)c1ccc(Nc2ccc(C(F)(F)F)cc2)c(-c2nnn(C)n2)c1` [Compound 17, N,N-diethyl-3-(2-methyl-2H-tetrazol-5-yl)-4-((4-(trifluoromethyl)phenyl)amino) benzamide], which IC50 is on record?
Its IC50 is 100 to 1000 nM.

For `CN(C)C(=O)c1ccc(Nc2cccc(C(F)(F)F)c2)c(-c2nnn(C)n2)c1` [Compound 19, N,N-dimethyl-3-(2-methyl-2H-tetrazol-5-yl)-4-((3-(trifluoromethyl)phenyl)amino) benzamide], which IC50 is on record?
Its IC50 is 100 to 1000 nM.

`CCN(CC)C(=O)c1ccc(Nc2cccc(C(F)(F)F)c2)c(-c2nnn(C)n2)c1` [Compound 20, N,N-diethyl-3-(2-methyl-2H-tetrazol-5-yl)-4-((3-(trifluoromethyl)phenyl)amino) benzamide] was tested. Which IC50 did it give?
The IC50 was 100 to 1000 nM.

How did the IC50 turn out when `CC(C)NC(=O)c1ccc(Nc2cccc(C(F)(F)F)c2)c(-c2nnn(C)n2)c1` [Compound 21, N-isopropyl-3-(2-methyl-2H-tetrazol-5-yl)-4-((3-(trifluoromethyl)phenyl)amino) benzamide] was run?
The IC50 was at most 100 nM.

Which IC50 does the source give for `CCNC(=O)c1ccc(Nc2cccc(C(F)(F)F)c2)c(-c2nnn(C)n2)c1` [Compound 22, N-ethyl-3-(2-methyl-2H-tetrazol-5-yl)-4-((3-(trifluoromethyl)phenyl)amino) benzamide] here?
The IC50 was at most 100 nM.

With `Cn1nnc(-c2cc(C(=O)NS(C)(=O)=O)ccc2Nc2cccc(C(F)(F)F)c2)n1` [Compound 23, 3-(2-methyl-2H-tetrazol-5-yl)-N-(methylsulfonyl)-4-((3-(trifluoromethyl)phenyl)amino) benzamide] as the molecule, how does the IC50 read?
Its IC50 is at most 100 nM.

For `COC(=O)c1ccc(Nc2ccc(C(F)(F)F)cc2)c(-c2nnn(Cc3ccccc3F)n2)c1` [Compound 24, methyl 3-(2-(2-fluorobenzyl)-2H-tetrazol-5-yl)-4-((4-(trifluoromethyl)phenyl)amino) benzoate], which IC50 is on record?
Its IC50 is 100 to 1000 nM.

How did the IC50 turn out when `O=C(O)c1ccc(Nc2ccc(C(F)(F)F)cc2)c(-c2nnn(Cc3ccccc3F)n2)c1` [Compound 25, 3-(2-(2-fluorobenzyl)-2H-tetrazol-5-yl)-4-((4-(trifluoromethyl)phenyl)amino) benzoic acid] was run?
The IC50 was at most 100 nM.

For `COC(=O)c1ccc(Nc2cccc(C(F)(F)F)c2)c(-c2nnn(Cc3ccccc3F)n2)c1` [Compound 26, methyl 3-(2-(2-fluorobenzyl)-2H-tetrazol-5-yl)-4-((3-(trifluoromethyl)phenyl)amino) benzoate], which IC50 is on record?
Its IC50 is 100 to 1000 nM.

Which IC50 does the source give for `O=C(O)c1ccc(Nc2cccc(C(F)(F)F)c2)c(-c2nnn(Cc3ccccc3F)n2)c1` [Compound 27, 3-(2-(2-fluorobenzyl)-2H-tetrazol-5-yl)-4-((3-(trifluoromethyl)phenyl)amino) benzoic acid] here?
Its IC50 is at most 100 nM.

`Cn1cnc(-c2cc(C(=O)O)ccc2Nc2ccc(C(F)(F)F)cc2)c1` [Compound 28, 3-(1-methyl-1H-imidazol-4-yl)-4-((4-(trifluoromethyl)phenyl)amino) benzoic acid] was tested. Which IC50 did it give?
Its IC50 is at most 100 nM.

`CC(C)NC(=O)c1ccc(Nc2ccc(C(F)(F)F)cc2)c(-c2ccnc(N)c2)c1` [Compound 29, 3-(2-aminopyridin-4-yl)-N-isopropyl-4-((4-(trifluoromethyl)phenyl)amino) benzamide] was tested. Which IC50 did it give?
Its IC50 is 100 to 1000 nM.

How did the IC50 turn out when `Nc1cc(-c2cc(C(=O)O)ccc2Nc2ccc(C(F)(F)F)cc2)ccn1` [Compound 30, 3-(2-aminopyridin-4-yl)-4-((4-(trifluoromethyl)phenyl)amino) benzoic acid] was run?
The IC50 was at most 100 nM.

With `COC(=O)c1ccc(Nc2ccc(C(F)(F)F)cc2)c(-c2cn(C)cn2)c1` [Compound 33, methyl 3-(1-methyl-1H-imidazol-4-yl)-4-((4-(trifluoromethyl)phenyl)amino)benzoate] as the molecule, how does the IC50 read?
Its IC50 is at most 100 nM.

With `COC(=O)c1ccc(Nc2ccc(C(F)(F)F)cc2)c(-c2ccnc(N)c2)c1` [Compound 34, methyl 3-(2-amino-4-pyridyl)-4-[4-(trifluoromethyl)anilino] benzoate] as the molecule, how does the IC50 read?
Its IC50 is at most 100 nM.

With `CC(C)NC(=O)c1ccc(Nc2ccc(C(F)(F)F)cc2)c(-c2cn(C)cn2)c1` [Compound 36, N-Isopropyl-3-(-methylimidazol-4-yl)-4-[4-(trifluoromethyl)anilino] benzamide] as the molecule, how does the IC50 read?
The IC50 was at most 100 nM.

`Cn1cnc(-c2cc(C(=O)NC3CC3)ccc2Nc2ccc(C(F)(F)F)cc2)c1` [Compound 37, N-cyclopropyl-3-(1-methylimidazol-4-yl)-4-[4 (trifluoromethyl)anilino] benzamide] was tested. Which IC50 did it give?
The IC50 was at most 100 nM.

Which IC50 does the source give for `Cn1cnc(-c2cc(C(=O)NS(N)(=O)=O)ccc2Nc2ccc(C(F)(F)F)cc2)c1` [Compound 38, 3-(1-methylimidazol-4-yl)-N-sulfamoyl-4-[4-(trifluoromethyl)anilino] benzamide] here?
The IC50 was at most 100 nM.
